This note sets out measurements from US6365584B1, “Arylysulphonamide-substituted benzimidazoles having tryptase-inhibiting activity” (Boehringer Ingelheim Pharma KG, priority 1999, dated 2002).

In series [1] the target is T1, rh beta tryptase (Homo sapiens, UniProt Q15661).
T1 construct: purchased Promega
The series can be described thus: tryptase inhibition test (cleavage of N-p-tosyl-Gly-Pro-Lys-para-nitroaniline, p-nitroaniline measured at 405 nm). The series is classed as biochemical. The note with it: Tris HCl buffer pH 7.4 with calcium and heparin; substrate 0.6 mM; 5 min pre-incubation, 5 min incubation at 37° C.; enzyme activity 0.91 U/ml. The method, then: The compounds according to the invention are characterised by their tryptase-inhibiting activity. This ability to inhibit tryptase was investigated using the test described below. The measurement is carried out in Tris HCl buffer (100 mM), which additionally contains calcium (5 mM) and heparin (100 mg/ml), at pH 7.4. The standard used is rh beta tryptase which may be obtained commercially from Promega, for example. The substrate used is N-p-tosyl-Gly-Pro-Lys-para-nitroaniline in a concentration of 0.6 mM. The substrate is digested with tryptase to form p-nitroaniline which can be measured at 405 nm. Usually, an incubation period of 5 minutes and an incubation temperature of 37° C. are chosen. The enzyme activity used is 0.91 U/ml. The measurements are carried out in an Autoanalyser (CobasBio) made by Hofmann LaRoche. The potential inhibitory substances are used in concentrations of 10 μM in the screening, the inhibition of the tryptase being given in percent. The IC50 is determined at over 70% inhibition (concentration at which 50% of the enzyme activity is inhibited). After 5 minutes' pre-incubation of the potential inhibitory substances, the substrate is added to start the reaction, the formation of p-nitroaniline being taken as a measurement of the enzyme activity after 5 minutes, after testing the linearity.
The data obtained after the above test has been carried out (IC50 values) can be found in Table 3.

T1 sequence (Q15661 31-275): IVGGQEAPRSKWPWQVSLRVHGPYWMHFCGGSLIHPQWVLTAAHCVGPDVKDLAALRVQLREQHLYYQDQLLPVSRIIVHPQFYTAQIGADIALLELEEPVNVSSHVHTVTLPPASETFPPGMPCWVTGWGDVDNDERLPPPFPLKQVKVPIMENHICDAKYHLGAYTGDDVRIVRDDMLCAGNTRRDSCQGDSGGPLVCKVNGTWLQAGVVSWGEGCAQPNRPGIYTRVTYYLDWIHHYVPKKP

Consider `Cn1c(CCc2ccc(C(=N)N)cc2)nc2cc(N(CC(=O)N3CCC(Cc4ccccc4)CC3)S(=O)(=O)c3ccc4ccccc4c3)ccc21` [Example 46, 1-Methyl-2-[2-(4-amidino-phenyl)-ethyl]-5-[N-(4′-benzyl-piperid-1-yl-carbonylmethyl)-naphth-2-ylsulphonylamino]-benzimidazole], for which, in series [1], the IC50 came to 0.03 µM. As for `Cn1c(CCc2ccc(C(=N)N)cc2)nc2cc(N(CCN3CCOCC3)S(=O)(=O)c3ccc4ccccc4c3)ccc21` [Example 47, 1-Methyl-2-[2-(4-amidino-phenyl)-ethyl]-5-[N-(2-morpholinoethyl)-naphth-2-yl-sulphonylamino]-benzimidazole], the IC50 in series [1] came to 0.0703 µM.

Consider `Cn1c(CCc2ccc(C(=N)N)cc2)nc2cc(N(CC(=O)N3CCNCC3)S(=O)(=O)c3ccc4ccccc4c3)ccc21` [Example 48, 1-Methyl-2-[2-(4-amidino-phenyl)-ethyl]-5-[N-(piperazin-1-yl-carbonylmethyl)-naphth-2-ylsulphonylamino]-benzimidazole], for which, in series [1], the IC50 was found to be 0.144 µM. The same measure, in the same setting: under `Cn1c(CCc2ccc(C(=N)N)cc2)nc2cc(N(CC(=O)N3CCN(c4ccncc4)CC3)S(=O)(=O)c3ccc4ccccc4c3)ccc21` [Example 49, 1-Methyl-2-[2-(4-amidino-phenyl)-ethyl]-5-[N-(4′-pyrid-4″- yl-piperazin-1-yl-carbonyl-methyl)-naphth-2-ylsulphonyl-amino]-benzimidazole] stands 0.186 µM; under `Cn1c(CCc2ccc(C(=N)N)cc2)nc2cc(N(CC(=O)N3CCN(Cc4ccccc4)CC3)S(=O)(=O)c3ccc4ccccc4c3)ccc21` [Example 50, 1-Methyl-2-[2-(4-amidino-phenyl)-ethyl]-5-[N-(4′-benzyl-piperazin-1-yl-carbonylmethyl)-naphth-2-ylsulphonylamino]-benzimidazole], 0.215 µM. Turning to `CCN(CC)CCN(c1ccc2c(c1)nc(CCc1ccc(C(=N)N)cc1)n2C)S(=O)(=O)c1cccc2cccnc12` [Example 52, 1-Methyl-2-[2-(4-amidino-phenyl)-ethyl]-5-[N-(2-diethyl-aminoethyl)-quinol-8-yl-sulphonylamino]-benzimidazole;], the IC50 in series [1] came out at 0.029 µM. `CCN(CC)CCN(c1ccc2c(c1)nc(CCc1ccc(C(=N)N)cc1)n2C)S(=O)(=O)c1cccc2cnccc12` [Example 53, 1-Methyl-2-[2-(4-amidino-phenyl)-ethyl]-5-[N-(2-diethyl-aminoethyl)-isoquinol-5-yl-sulphonylamino]-benzimidazole;]: the IC50 in series [1] came to 0.038 µM. For `CN(C)CCCCN(c1ccc2c(c1)nc(CCc1ccc(C(=N)N)cc1)n2C)S(=O)(=O)c1ccccc1` [Example 54, 1-Methyl-2-[2-(4-amidino-phenyl)-ethyl]-5-[N-(4-dimethyl-aminobutyl)-benzenesulphonyl-amino]-benzimidazole], in series [1], the IC50 is 0.027 µM.

In the case of `CN1CCCN(C(=O)CN(c2ccc3c(c2)nc(CCc2ccc(C(=N)N)cc2)n3C)S(=O)(=O)c2ccccc2)CC1` [Example 55, 1-Methyl-2-[2-(4-amidino-phenyl)-ethyl]-5-[N-(4-methyl-1,4-diazepin-1-yl-carbonyl-methyl)-benzenesulphonyl-amino]-benzimidazole], in series [1], the IC50 was 0.028 µM. The compound `Cn1c(CCc2ccc(/C(N)=N/O)cc2)nc2cc(N(CCN3CCOCC3)S(=O)(=O)c3ccccc3)ccc21` [Example 56, N-{2-[2-(4-(amino-hydroximinomethyl)-phenyl)-ethyl]-1-methyl-benzimidazol-5-yl}-N-[2-(morpholin-4-yl)-ethyl]-(benzenesulphonamide)] came in with a melting point of 183 to 186 °C.

The term IC50 denotes the point on the concentration scale where inhibition reaches its midpoint. For orientation: melting point means the temperature of the solid-liquid transition.
